Laboratory results reported in ChEMBL document CHEMBL1921690, “Synthesis and evaluation of pyridone-phenoxypropyl-R-2-methylpyrrolidine analogues as histamine H3 receptor antagonists” (Bioorg Med Chem Lett, 2011).
One block for each molecule: values may come before it.

Columns and labels:
[1] = Oral bioavailability in rat at 5 mg/kg; assay type: ADME, organism-based; conditions: in vivo
Histamine H3 receptor [2] = molecular target: Histamine H3 receptor (Rattus norvegicus, UniProt Q9QYN8); assay: Displacement of [3H]NAMH from rat histamine H3 receptor expressed in CHO cells; assay type: cell-based
[3] = Clearance in rat at 1 mg/kg, iv; assay type: ADME, organism-based; design: dose 1 mg/kg, route intravenous; conditions: in vivo
Histamine H3 receptor [4] = molecular target: T1, Histamine H3 receptor (Homo sapiens, UniProt Q9Y5N1); assay: Displacement of [3H]NAMH from human histamine H3 receptor expressed in CHO cells; assay type: cell-based
Histamine H4 receptor = Histamine H4 receptor (Homo sapiens, UniProt Q9H3N8); assay: Binding affinity to human histamine H4 receptor
[5] = Half life in rat at 1 mg/kg, iv; assay type: ADME, organism-based; design: dose 1 mg/kg, route intravenous; conditions: in vivo
Cytochrome P450 2D6 = Cytochrome P450 2D6 (Homo sapiens, UniProt P10635); assay: Inhibition of CYP2D6; assay type: ADME
Rattus norvegicus [6] = assay: Induction of wake promoting activity in Sprague-Dawley rat EEG/EMG model assessed as AUC of cumulative wake time at 30 mg/kg, ip measured after 4 hrs post dosing (reference value: 114 +/- 9 mins); assay type: functional; conditions: route intraperitoneal
Rattus norvegicus [7] = assay: Induction of wake promoting activity in Sprague-Dawley rat EEG/EMG model assessed as surplus wake time at 30 mg/kg, ip measured after 22 hrs post dosing; assay type: functional; conditions: route intraperitoneal
Cytochrome P450 3A4 = Cytochrome P450 3A4 (Homo sapiens, UniProt P08684); assay: Inhibition of CYP3A4; assay type: ADME
[8] = Volume of distribution in rat at 1 mg/kg, iv; assay type: ADME, organism-based; design: dose 1 mg/kg, route intravenous; conditions: in vivo
Cytochrome P450 1A2 = molecular target: T2, Cytochrome P450 1A2 (Homo sapiens, UniProt P05177); assay: Inhibition of CYP1A2; assay type: ADME
T2 sequence (P05177 whole entry): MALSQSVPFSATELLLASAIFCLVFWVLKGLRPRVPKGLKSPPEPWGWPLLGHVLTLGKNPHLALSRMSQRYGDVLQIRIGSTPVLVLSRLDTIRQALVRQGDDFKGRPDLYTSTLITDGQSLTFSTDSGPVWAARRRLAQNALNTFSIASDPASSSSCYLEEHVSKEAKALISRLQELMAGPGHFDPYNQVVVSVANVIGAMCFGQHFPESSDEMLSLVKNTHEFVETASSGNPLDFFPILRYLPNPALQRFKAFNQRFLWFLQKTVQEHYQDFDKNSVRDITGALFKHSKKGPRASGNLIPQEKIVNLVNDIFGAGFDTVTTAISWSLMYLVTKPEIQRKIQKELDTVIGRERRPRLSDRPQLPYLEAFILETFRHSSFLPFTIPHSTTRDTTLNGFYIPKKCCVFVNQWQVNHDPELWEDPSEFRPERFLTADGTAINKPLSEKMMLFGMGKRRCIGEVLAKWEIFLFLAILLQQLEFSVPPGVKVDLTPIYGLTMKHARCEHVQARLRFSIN

Rattus norvegicus [9] = assay: Induction of wake promoting activity in Sprague-Dawley rat EEG/EMG model assessed as time to maximal cumulative wake surplus at 30 mg/kg, ip measured after 6 hrs post dosing; assay type: functional; conditions: route intraperitoneal
[10] = Half life in monkey liver microsomes; assay type: ADME, Macaca mulatta, Microsome; conditions: rhesus monkey
Rattus norvegicus [11] = assay: Induction of wake promoting activity in Sprague-Dawley rat EEG/EMG model assessed as AUC of cumulative wake time at 10 mg/kg, ip measured after 4 hrs post dosing (reference value: 114 +/- 9 mins); assay type: functional; conditions: route intraperitoneal
Histamine H3 receptor [12] = molecular target: T1, Histamine H3 receptor; assay: Antagonist activity at human histamine H3 receptor expressed in CHO cells assessed as inhibition of RAHM-induced [35S]GTPgammaS binding after 4 hrs by beta liquid scintillation counting; assay type: functional, cell-based
Histamine H1 receptor = Histamine H1 receptor (Homo sapiens, UniProt P35367); assay: Binding affinity to human histamine H1 receptor
[13] = AUC (0 to t) in rat at 5 mg/kg, po; assay type: ADME, organism-based; design: dose 5 mg/kg, route oral; conditions: plasma
[14] = Drug level in rat brain at 10 mg/kg, ip after 1 hr; assay type: ADME, organism-based; design: dose 10 mg/kg, route intraperitoneal; conditions: read-out: Drug uptake
Rattus norvegicus [15] = assay: Induction of wake promoting activity in Sprague-Dawley rat EEG/EMG model assessed as time for recovered sleep latency per hrat 30 mg/kg, ip measured after 6 to 22 hrs post dosing; assay type: functional; conditions: route intraperitoneal
Rattus norvegicus [16] = assay: Induction of wake promoting activity in ip dosed Sprague-Dawley rat EEG/EMG model assessed as increase in AUC of wake latency after 4 hrs post dosing; assay type: functional, organism-based
Histamine H3 receptor [17] = molecular target: T1, Histamine H3 receptor; assay: Inhibition of basal activity of human histamine H3 receptor expressed in CHO cells assessed as inhibition of RAHM-induced [35S]GTPgammaS binding after 4 hrs by beta liquid scintillation counting; assay type: functional, cell-based
[18] = Half life in rat liver microsomes; assay type: ADME, Microsome
[19] = Half life in human liver microsomes; assay type: ADME, Microsome
Cytochrome P450 2C9 = Cytochrome P450 2C9 (Homo sapiens, UniProt P11712); assay: Inhibition of CYP2C9; assay type: ADME
Rattus norvegicus [20] = assay: Induction of wake promoting activity in Sprague-Dawley rat EEG/EMG model assessed as fold increase in wake latency at 30 mg/kg, ip measured after 4 hrs post dosing relative to control; assay type: functional; conditions: route intraperitoneal
Rattus norvegicus [21] = assay: Induction of wake promoting activity in Sprague-Dawley rat EEG/EMG model assessed as retained wake latency at 30 mg/kg, ip measured after 22 hrs post dosing; assay type: functional; conditions: route intraperitoneal
Rattus norvegicus [22] = assay: Inhibition of RAMH-induced dipsogenia in ip dosed rat dipsogenia model; assay type: functional
Rattus norvegicus [23] = assay: Induction of wake promoting activity in Sprague-Dawley rat EEG/EMG model assessed as maximum cumulative wake surplus time at 10 mg/kg, ip measured after 3 hrs post dosing; assay type: functional; conditions: route intraperitoneal
[24] = Cmax in rat at 5 mg/kg, po; assay type: ADME, organism-based; design: dose 5 mg/kg, route oral; conditions: in vivo
Rattus norvegicus [25] = assay: Induction of wake promoting activity in Sprague-Dawley rat EEG/EMG model assessed as increase of wake latency at 30 mg/kg, ip measured after 4 hrs post dosing; assay type: functional; conditions: route intraperitoneal
[26] = Aqueous solubility of compound at pH 7.4; assay type: physicochemical
[27] = Ratio of drug level in brain to plasma in rat at 10 mg/kg, ip after 1 hr; assay type: ADME, organism-based; design: dose 10 mg/kg, route intraperitoneal; conditions: read-out: BPR
[28] = Ratio of drug level in brain to plasma in rat at 5 mg/kg, po; assay type: ADME, organism-based; design: dose 5 mg/kg, route oral; conditions: read-out: BPR
Histamine H2 receptor = Histamine H2 receptor (Homo sapiens, UniProt P25021); assay: Binding affinity to human histamine H2 receptor
[29] = Half life in mouse liver microsomes; assay type: ADME, Microsome
Rattus norvegicus [30] = assay: Induction of wake promoting activity in Sprague-Dawley rat EEG/EMG model assessed as maximum cumulative wake surplus time at 10 mg/kg, ip measured after 22 hrs post dosing; assay type: functional; conditions: route intraperitoneal
Cytochrome P450 2C19 = Cytochrome P450 2C19 (Homo sapiens, UniProt P33261); assay: Inhibition of CYP2C19; assay type: ADME
Cytochrome P450 2C19, sequence (P33261 whole entry): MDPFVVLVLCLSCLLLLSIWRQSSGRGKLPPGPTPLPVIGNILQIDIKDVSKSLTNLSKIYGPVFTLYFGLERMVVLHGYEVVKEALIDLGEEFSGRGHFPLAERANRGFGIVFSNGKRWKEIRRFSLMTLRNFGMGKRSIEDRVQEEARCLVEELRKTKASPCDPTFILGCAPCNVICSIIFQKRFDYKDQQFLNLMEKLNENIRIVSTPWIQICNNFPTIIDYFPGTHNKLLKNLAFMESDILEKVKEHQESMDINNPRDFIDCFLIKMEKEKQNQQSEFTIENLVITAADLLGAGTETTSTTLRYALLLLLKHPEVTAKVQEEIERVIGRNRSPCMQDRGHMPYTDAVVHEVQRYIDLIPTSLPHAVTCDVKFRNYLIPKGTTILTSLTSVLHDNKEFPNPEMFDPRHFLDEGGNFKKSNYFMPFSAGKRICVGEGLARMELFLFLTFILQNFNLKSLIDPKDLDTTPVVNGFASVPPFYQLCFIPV

T1 sequence (Q9Y5N1 whole entry): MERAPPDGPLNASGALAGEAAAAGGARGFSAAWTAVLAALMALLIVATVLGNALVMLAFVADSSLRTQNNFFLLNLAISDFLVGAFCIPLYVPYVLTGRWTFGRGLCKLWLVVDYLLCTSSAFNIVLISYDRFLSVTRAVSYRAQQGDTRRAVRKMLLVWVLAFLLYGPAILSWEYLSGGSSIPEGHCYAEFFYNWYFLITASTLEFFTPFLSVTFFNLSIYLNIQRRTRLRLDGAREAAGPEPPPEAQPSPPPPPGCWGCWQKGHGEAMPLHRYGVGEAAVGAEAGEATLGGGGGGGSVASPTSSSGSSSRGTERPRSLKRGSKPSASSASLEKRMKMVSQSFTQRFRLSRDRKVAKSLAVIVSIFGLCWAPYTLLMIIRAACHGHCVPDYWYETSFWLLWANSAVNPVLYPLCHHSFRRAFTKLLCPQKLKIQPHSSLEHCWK
Histamine H3 receptor (Rattus norvegicus, UniProt Q9QYN8), sequence (Q9QYN8 whole entry): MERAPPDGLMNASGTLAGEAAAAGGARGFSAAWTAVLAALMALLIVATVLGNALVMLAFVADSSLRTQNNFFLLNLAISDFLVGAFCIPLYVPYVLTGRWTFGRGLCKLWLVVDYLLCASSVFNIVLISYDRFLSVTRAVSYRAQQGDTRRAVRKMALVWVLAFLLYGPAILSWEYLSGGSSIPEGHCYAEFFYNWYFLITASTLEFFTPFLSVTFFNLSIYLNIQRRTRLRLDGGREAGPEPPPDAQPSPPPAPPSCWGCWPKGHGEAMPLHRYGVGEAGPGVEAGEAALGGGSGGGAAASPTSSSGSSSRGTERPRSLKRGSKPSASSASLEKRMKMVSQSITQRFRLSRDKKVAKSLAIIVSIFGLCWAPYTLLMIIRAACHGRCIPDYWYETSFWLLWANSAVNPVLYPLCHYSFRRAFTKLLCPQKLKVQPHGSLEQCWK
Histamine H2 receptor, sequence (P25021 whole entry): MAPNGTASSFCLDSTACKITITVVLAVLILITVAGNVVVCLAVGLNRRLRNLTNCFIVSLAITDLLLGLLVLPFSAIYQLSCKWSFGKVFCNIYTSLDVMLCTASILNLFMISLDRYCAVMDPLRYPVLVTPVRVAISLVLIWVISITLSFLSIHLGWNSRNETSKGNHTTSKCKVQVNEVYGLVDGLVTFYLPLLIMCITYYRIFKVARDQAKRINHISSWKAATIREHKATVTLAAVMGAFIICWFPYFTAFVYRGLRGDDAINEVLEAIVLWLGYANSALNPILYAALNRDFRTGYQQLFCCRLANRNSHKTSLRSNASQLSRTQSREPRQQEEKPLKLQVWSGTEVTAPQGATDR
Histamine H1 receptor, sequence (P35367 whole entry): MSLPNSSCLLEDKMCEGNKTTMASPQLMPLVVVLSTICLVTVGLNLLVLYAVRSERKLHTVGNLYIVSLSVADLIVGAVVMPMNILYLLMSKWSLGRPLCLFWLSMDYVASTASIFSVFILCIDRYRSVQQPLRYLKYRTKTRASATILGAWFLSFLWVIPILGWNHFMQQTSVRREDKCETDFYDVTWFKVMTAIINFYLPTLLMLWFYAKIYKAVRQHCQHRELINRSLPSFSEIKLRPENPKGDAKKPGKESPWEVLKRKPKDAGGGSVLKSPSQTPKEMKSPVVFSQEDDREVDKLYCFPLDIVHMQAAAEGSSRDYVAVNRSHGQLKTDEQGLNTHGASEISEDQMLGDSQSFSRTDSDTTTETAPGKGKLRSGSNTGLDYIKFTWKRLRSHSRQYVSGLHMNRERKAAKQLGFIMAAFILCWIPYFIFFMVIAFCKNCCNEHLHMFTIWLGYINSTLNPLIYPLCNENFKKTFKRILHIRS
Cytochrome P450 2D6, sequence (P10635 whole entry): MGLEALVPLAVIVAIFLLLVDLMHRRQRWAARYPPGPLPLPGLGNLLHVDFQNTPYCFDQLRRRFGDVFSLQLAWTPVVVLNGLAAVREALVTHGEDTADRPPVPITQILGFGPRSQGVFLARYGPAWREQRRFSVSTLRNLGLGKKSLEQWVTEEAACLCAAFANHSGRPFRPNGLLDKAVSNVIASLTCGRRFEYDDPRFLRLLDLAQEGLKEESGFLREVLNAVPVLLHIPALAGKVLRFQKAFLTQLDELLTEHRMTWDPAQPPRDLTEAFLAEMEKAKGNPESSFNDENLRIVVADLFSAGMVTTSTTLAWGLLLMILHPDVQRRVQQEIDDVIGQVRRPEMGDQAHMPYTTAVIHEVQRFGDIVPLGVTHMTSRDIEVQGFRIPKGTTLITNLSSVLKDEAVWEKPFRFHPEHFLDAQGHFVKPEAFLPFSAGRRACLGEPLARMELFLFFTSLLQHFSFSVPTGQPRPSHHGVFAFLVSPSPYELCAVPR
Cytochrome P450 2C9, sequence (P11712 whole entry): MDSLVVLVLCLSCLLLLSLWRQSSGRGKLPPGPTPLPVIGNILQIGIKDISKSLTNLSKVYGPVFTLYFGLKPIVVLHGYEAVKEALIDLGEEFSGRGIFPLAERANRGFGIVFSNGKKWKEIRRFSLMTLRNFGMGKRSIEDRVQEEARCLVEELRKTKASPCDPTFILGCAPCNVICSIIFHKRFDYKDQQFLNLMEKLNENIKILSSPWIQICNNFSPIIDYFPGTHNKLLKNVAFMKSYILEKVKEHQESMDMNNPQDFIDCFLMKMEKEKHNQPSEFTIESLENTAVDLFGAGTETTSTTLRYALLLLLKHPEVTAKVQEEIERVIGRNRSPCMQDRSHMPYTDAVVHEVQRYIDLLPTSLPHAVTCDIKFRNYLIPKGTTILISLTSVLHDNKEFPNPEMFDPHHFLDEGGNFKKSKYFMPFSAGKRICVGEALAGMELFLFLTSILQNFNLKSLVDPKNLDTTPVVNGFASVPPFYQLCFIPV
Cytochrome P450 3A4, sequence (P08684 whole entry): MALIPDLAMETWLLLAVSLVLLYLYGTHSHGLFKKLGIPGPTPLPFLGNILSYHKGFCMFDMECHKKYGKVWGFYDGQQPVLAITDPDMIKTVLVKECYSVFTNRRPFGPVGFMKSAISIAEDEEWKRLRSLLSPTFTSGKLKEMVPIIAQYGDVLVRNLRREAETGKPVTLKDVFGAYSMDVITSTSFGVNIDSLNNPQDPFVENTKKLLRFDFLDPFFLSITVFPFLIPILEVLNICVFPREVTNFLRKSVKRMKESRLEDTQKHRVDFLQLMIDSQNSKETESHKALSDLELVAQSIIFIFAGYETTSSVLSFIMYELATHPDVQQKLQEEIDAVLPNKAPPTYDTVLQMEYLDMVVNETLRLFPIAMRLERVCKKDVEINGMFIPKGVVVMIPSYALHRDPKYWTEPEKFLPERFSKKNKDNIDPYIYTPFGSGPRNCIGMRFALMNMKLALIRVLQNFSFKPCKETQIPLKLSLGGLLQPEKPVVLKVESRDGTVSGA

Structure (SMILES): C[C@@H]1CCCN1CCCOc1ccc(-c2ccn(C)c(=O)c2)cc1
- Ki (Histamine H3 receptor [2]): 12 nM
- Ki (Histamine H3 receptor [4]): 3.2 nM

Structure (SMILES): C[C@@H]1CCCN1CCCOc1cccc(-c2ccc(=O)n(C)c2)c1
- Ki (Histamine H3 receptor [2]): > 500 nM
- Ki (Histamine H3 receptor [4]): 112 nM

Structure (SMILES): C[C@@H]1CCCN1CCCOc1ccc(-c2ccc(=O)n(C)c2)cc1
- Ki (Histamine H4 receptor): > 10000 nM
- bioavailability [1]: 11%
- half-life [5]: 84 min
- IC50 (Cytochrome P450 2D6): > 30000 nM
- Time (Rattus norvegicus [6]): 227 min
- Time (Rattus norvegicus [7]): 51 min
- IC50 (Cytochrome P450 3A4): > 30000 nM
- Vd [8]: 1.4 L/kg
- IC50 (Cytochrome P450 1A2): > 30000 nM
- Time (Rattus norvegicus [9]): 146 min
- half-life [10]: > 40 min
- Time (Rattus norvegicus [11]): 160 min
- Kb (Histamine H3 receptor [12]): 0.2 nM
- Ki (Histamine H1 receptor): > 10000 nM
- AUC(0-t) [13]: 867 ng·h/mL
- concentration at 1 h [14]: 2900 nM
- Time (Rattus norvegicus [15]): 6.3 min
- Activity (Rattus norvegicus [16]): Dose-dependent effect
- EC50 (Histamine H3 receptor [17]): 0.7 nM
- half-life [18]: > 40 min
- half-life [19]: > 40 min
- Ki (Histamine H3 receptor [2]): 8.5 nM
- IC50 (Cytochrome P450 2C9): > 30000 nM
- fold change (FC) (Rattus norvegicus [20]): 2
- Activity (Rattus norvegicus [21]): 35%
- ED50 (Rattus norvegicus [22]): 0.03 mg/kg
- inhibition (Rattus norvegicus [22]): Dose-dependent effect
- Time (Rattus norvegicus [23]): 53 min
- Cmax [24]: 190 ng/mL
- Activity (Rattus norvegicus [25]): 95%
- solubility [26]: > 300 µg/mL
- Kp at 1 h [27]: 1.9
- clearance [3]: 11 mL/min/kg
- Kp [28]: 1.7
- Ki (Histamine H2 receptor): > 10000 nM
- Ki (Histamine H3 receptor [4]): 0.7 nM
- half-life [29]: > 40 min
- Time (Rattus norvegicus [30]): 33 min
- IC50 (Cytochrome P450 2C19): > 30000 nM

Structure (SMILES): C[C@@H]1CCCN1CCCOc1ccc(-c2cccc(=O)n2C)cc1
- Ki (Histamine H3 receptor [2]): 21 nM
- Ki (Histamine H3 receptor [4]): 4.9 nM

Structure (SMILES): C[C@@H]1CCCN1CCCOc1ccc(-c2cc(-c3ccccc3)c(=O)n(C)c2)cc1
- Ki (Histamine H3 receptor [2]): 7.9 nM
- Ki (Histamine H3 receptor [4]): 3.5 nM

Continued by falling Ki (Histamine H3 receptor [2]), values first:

- Ki (Histamine H3 receptor [2]): 144 nM
- Ki (Histamine H3 receptor [4]): 18 nM
Structure (SMILES): C[C@@H]1CCCN1CCCOc1ccc(-c2cccn(C)c2=O)cc1

- bioavailability [1]: 17%
- Ki (Histamine H3 receptor [2]): 19 nM
- clearance [3]: 138 mL/min/kg
- Ki (Histamine H3 receptor [4]): 1.8 nM
Structure (SMILES): C[C@@H]1CCCN1CCCOc1ccc(-c2ccc(=O)n(-c3ccccc3)c2)cc1

- bioavailability [1]: 0%
- Ki (Histamine H3 receptor [2]): 10 nM
- clearance [3]: 171 mL/min/kg
- Ki (Histamine H3 receptor [4]): 2 nM
Structure (SMILES): C[C@@H]1CCCN1CCCOc1ccc(-c2ccc(=O)n(Cc3ccccc3)c2)cc1

- Ki (Histamine H3 receptor [2]): 9.6 nM
- Ki (Histamine H3 receptor [4]): 4.7 nM
Structure (SMILES): C[C@@H]1CCCN1CCCOc1ccc(-c2ccc(=O)n(-c3ccc(F)cc3)c2)cc1

- bioavailability [1]: 0%
- Ki (Histamine H3 receptor [2]): 9 nM
- clearance [3]: 96 mL/min/kg
- Ki (Histamine H3 receptor [4]): 7.7 nM
Structure (SMILES): C[C@@H]1CCCN1CCCOc1ccc(-c2ccc(=O)[nH]c2)cc1

- Ki (Histamine H3 receptor [2]): 3 nM
- Ki (Histamine H3 receptor [4]): 3.4 nM
Structure (SMILES): C[C@@H]1CCCN1CCCOc1ccc(-c2cc(C#N)c(=O)n(C)c2)cc1

- bioavailability [1]: 8%
- Ki (Histamine H3 receptor [2]): 2.4 nM
- clearance [3]: 42 mL/min/kg
- Ki (Histamine H3 receptor [4]): 0.9 nM
Structure (SMILES): C[C@@H]1CCCN1CCCOc1ccc(-c2cn(C)c(=O)c3ccccc23)cc1
